Literature values, collected in patent publication US20240315940A1, “Topical Nourishing/Antimicrobial Compositions” (Laboratory Skin Care, Inc., priority 2021, published 2024).

System: bacteria, fungi, Pseudomonas aeruginosa, Pseudomonas capacia, Staphylococcus aureus, Escherichia coli, Candida albicans, Aspergillus niger, Salmonella …
Details: whole genera of microorganisms

Question: For Oc1cc(Cl)ccc1Oc1ccc(Cl)cc1Cl [triclosan], which effectiveness against microorganisms is on record?
Answer: effective
